According to patent publication US8003766B2, “Monoclonal antibody specific to ochratoxin A” (priority 2009, dated 2011):

Key:
9C9H9 mAb (anti-OTA mAb) [1] = test: direct competitive ELISA (cdELISA); format: binding, mouse; conditions: for concentrations causing 50% inhibition (IC50) binding of mAb to OTA-OVA by free toxin: FIG. 2A
Method: (§1) Both the cdELISA (direct competitive ELISA) and ciELISA (indirect competitive ELISA) were used to determine the specificity of 9C9H9 mAb.
Another ELISA method (direct competitive ELISA) was used to characterize mAb. The rabbit anti-mouse-Fc antibody was diluted in PBS (2 μg/mL), and 0.1 mL of the diluted form was coated onto each well. After incubation at 37° C. for 1 h and washing with Tween-PBS. The anti-OTA mAb supernatant was diluted in PBS (5 μg/mL) and 0.1 mL of the diluted form was used to coat each well. After the plate had been incubated at 4° C. overnight, it was washed with Tween-PBS followed by blocking with gelatin-PBS at 37° C. for 30 min. The plate was washed again with Tween-PBS four times, and then OTA standard (0.05 mL/well in PBS) concentrations from 0.01 to 100 ng/mL or samples together with the OTA-HRP conjugate (30 ng/mL, in PBS, 0.05 mL/well) were added and incubated at 37° C. for 50 min. The plate was washed four times with PBS-Tween, and 0.1 mL of TMB substrate solution was added. After incubation at room temperature in the dark for 10 min, the reaction was terminated by adding 0.1 mL of 1 N HCl. The absorbance at 450 nm was determined in the Vmax automatic ELISA reader.

9C9H9 mAb (anti-OTA mAb) [2] = test: indirect competitive ELISA (ciELISA); format: binding, mouse; conditions: for IC50 of binding of mAb to OTA-OVA by free toxin: OTA-OVA coated as solid-phase antigen, FIG. 2B
Method: as §1
Indirect Competitive ELISA was than used to characterize each mAb. Briefly, each well of a microtiter plate was coated with 0.1 mL of the OTA-OVA and kept at 4° C. overnight. After the plate had been washed four times with Tween-PBS (0.35 mL/well; 0.05% Tween 20 in PBS) using an automated ELISA washer, 0.17 mL of gelatin-PBS (0.17 mL/well; 0.1% gelatin in PBS) was added and allowed to incubate at 37° C. for 30 min. The plate was washed again and 0.05 mL of OTA standard with concentrations from 0.01 to 100 ng/mL or extracted samples (0.05 mL/well in PBS) were added to each well, and then the anti-OTA mAb (25 ng/mL in PBS, 0.05 mL/well) was added to all wells and incubated at 37° C. for 50 min. After incubation, the plate was washed four times with Tween-PBS, and 0.1 mL of goat antimouse IgG-HRP conjugate (1:20000 dilution) was added and incubated at 37° C. for 45 min. The plate was washed four times with Tween-PBS, and 0.1 mL of TMB substrate solution was added. After 10 min of incubation at room temperature, 0.1 mL of 1 N hydrochloric acid was added to stop the reaction. Absorbance at 450 nm was determined in a Vmax automatic ELISA reader.

[3] = at a concentration as high as 100 μg/mL

Structure (SMILES) | concentrations causing 50% inhibition (IC50) binding of mAb to OTA-OVA by free toxin (9C9H9 mAb (anti-OTA mAb) [1]) [ng/mL] | IC50 of binding of mAb to OTA-OVA by free toxin (9C9H9 mAb (anti-OTA mAb) [2]) [ng/mL] | inhibition of the binding of mAb to the marker antigen (OTA-HRP) (9C9H9 mAb (anti-OTA mAb) [1]; [3]) | inhibition of the binding of mAb to the marker antigen (OTA-OVA) (9C9H9 mAb (anti-OTA mAb) [2]; [3])
C[C@@H]1Cc2c(Cl)cc(C(=O)N[C@@H](Cc3ccccc3)C(=O)O)c(O)c2C(=O)O1 [OTA, ochratoxin A] | 0.32 | 0.28 |  | 
C[C@@H]1Cc2ccc(C(=O)N[C@@H](Cc3ccccc3)C(=O)O)c(O)c2C(=O)O1 [OTB, ochratoxin B] | 0.17 | 0.35 |  | 
CCOC(=O)[C@H](Cc1ccccc1)NC(=O)c1cc(Cl)c2c(c1O)C(=O)O[C@H](C)C2 [OTC, ochratoxin C] | 0.28 | 0.25 |  | 
N[C@@H](Cc1ccccc1)C(=O)O [phenylalanine] |  |  | did not inhibit | did not inhibit
